Results reported in patent US4038222A, “Untriakontapeptide with opiate activity” (Hoffman-La Roche Inc., priority 1976, dated 1977).
“Also recorded” adds a separate entry of the source. No end group written: not given here.

Assays:
[1] = test system: opiate receptor, guinea pig brain membranes; experiment: Opiate agonist activity by receptor binding assay (method of Simon et al.), inhibition of stereospecific binding; conditions: for Response: percentage of inhibition of stereospecific binding: mean ± standard error from 4 determinations
Experimental: The opiate agonist activity of natural beta-endophine was determined by the method of Simon et al., Proc. Nat. Acad. Sci. 70, 1947 (1973) using guinea pig brain membranes. The results obtained are summarized below in Table 4:
^a Percentage of inhibition of stereospecific binding.
Mean ± standard error from 4 determinations.

rabbit fat cells = experiment: Lipolytic activity in rabbit fat cells (procedure of Li et al.), glycerol production; type: cell-based; conditions: for Response: glycerol production: triplicate, mean ± standard error
Excerpt: The lypolytic activity of natural beta-endorphin was compared to the activity of ovine beta-lipotropin hormone in rabbit fat cells using the procedure of Li et al., Arch. Biochem. Biophys. 169, 669 (1975).
^a Micromole of glycerol production per gram of cells per hour.
Determinations in triplicate. Values in mean ± standard error.

[2] = pentapeptide isolated from pig brains; cited from earlier work

## Oc1ccc2c3c1O[C@H]1[C@@H](O)C=C[C@H]4[C@@H](C2)NCC[C@@]341 [Normorphine, reference compound]
[1]; dose 0.7 x 10^-7 M
  Response: percentage of inhibition of stereospecific binding: 28 ± 0.8%
[1]; dose 7.0 x 10^-7 M
  Response: percentage of inhibition of stereospecific binding: 70 ± 0.9%

## YGGFMTSEKSQTPLVTLFKNAIIKNAHKKGQ [beta-endorphin]
[1]
  Opiate agonist activity (in words): potent opiate agonist activity; also recorded: significant opiate agonist activity
[1]; 95% confidence limit of 300-392, λ = 0.044
  Relative potency to normorphine: 342%
[1]; dose 1.0 x 10^-7 M
  Response: percentage of inhibition of stereospecific binding: 60 ± 0.7%
[1]; dose 10.0 x 10^-7 M
  Response: percentage of inhibition of stereospecific binding: 83 ± 0.2%
[1]; molar basis
  Potency relative to normorphine on a molar basis: 3.42 times
Rabbit fat cells; compared with beta-lipotropin hormone
  Lipolytic activity in comparison to the complete hormone (in words): very low
Rabbit fat cells; dose 1.1 (unit not given)
  Response: glycerol production: 0.66 ± 0.28 Micromole of glycerol producti
Rabbit fat cells; dose 10.0 (unit not given)
  Response: glycerol production: 1.42 ± 0.37 Micromole of glycerol producti

## H-Tyr-Gly-Gly-Phe-Met-OH- (H-YGGFM-OH) [pentapeptide isolated from pig brains by Hughes et al]
[2]
  Opiate agonist activity (in words): exhibits opiate agonist activity
